In one assay the target is ER in T47D cells (Homo sapiens (Human), UniProt P03372). The experiment in a line: In-cell western (ICW) ER degradation assay in T47D cells (Compounds A1-A70). The format is cell-based. To be noted: T47D cells, 16 hrs treatment; for DC50: ER degradation, 0.02 to 300 nM; for Dmax: maximal ER degradation, read-out: T47D ICW Dmax (%). Here is the method:
ERa degradative activity of compounds can be assessed in MCF-7 and T47D Cells. MCF-7 and T47D cell are seeded and are subsequently treated with the compounds at certain concentrations (e.g., 0.02 to 300 nM). DMSO can be used as vehicle control. Cells are fixed and are blocked with Intercept (PBS) Blocking Buffer (e.g., Li—COR, Odyssey Blocking Buffer), and are stained with ER (e.g., 1:500, Cell signaling) primary antibody for overnight at cold room. Secondary Antibody (e.g., IRDye 800CW Goat anti-Rabbit IgG) and CellTag 700 Stain are added in Intercept (PBS) Blocking Buffer. Finally, cell plate is placed in incubator to dry. Image and signal are captured on Odyssey® DLx Imaging System.
Day 3: After 16 hrs of compounds treatment, cells were fixed by 4% PFA and permeabilized with elution buffer (0.1% Triton X-100 in 1% PBS Solution). Subsequently, cells were blocked with Intercept (PBS) Blocking Buffer (Li—COR, Odyssey Blocking Buffer), and were stained with ER (1:500, Cell signaling) primary antibody for overnight at cold room.
Day 4: Remove the buffer, add IRDye 800CW Goat anti-Rabbit IgG Secondary Antibody (1:2000) and CellTag 700 Stain (1:500) in Intercept (PBS) Blocking Buffer. Finally, cell plate is placed in incubator to dry. Image and signal were captured on Odyssey® DLx Imaging System.

A further assay has as its target ER in MCF-7 cells (Homo sapiens (Human), UniProt P03372). The experiment in a line: In-cell western (ICW) ER degradation assay in MCF-7 cells (Compounds A1-A70). The class given is cell-based. To be noted: MCF-7 cells, 16 hrs treatment; for DC50: ER degradation, 0.02 to 300 nM, read-out: MCF7 ICW DC50; for Dmax: MCF7, maximal ER degradation, read-out: MCF7 ICW Dmax (%).

A further assay concerns the target CRBN/DDB1 (Homo sapiens (Human), UniProt Q96SW2). The class given is binding. To be noted: His tagged CRBN+DDB-DLS7+CXU4, Cy5-labeled Thalidomide probe, one hour incubation; read-out: CRBN HTRF IC50. As to the method:
The binding potency was determined using H-TRF assay technology (Perkin Elmer). Compounds were serially diluted in DMSO and 0.2 μL volume was transferred to white 384-well plate.
In general terms: In TR-FRET formats the signal depends on donor and acceptor labels being close together.

Structures are written as SMILES. Read-outs that look alike come from different tables or passages of the source.

ER in MCF-7 cells, sequence (P03372 whole entry): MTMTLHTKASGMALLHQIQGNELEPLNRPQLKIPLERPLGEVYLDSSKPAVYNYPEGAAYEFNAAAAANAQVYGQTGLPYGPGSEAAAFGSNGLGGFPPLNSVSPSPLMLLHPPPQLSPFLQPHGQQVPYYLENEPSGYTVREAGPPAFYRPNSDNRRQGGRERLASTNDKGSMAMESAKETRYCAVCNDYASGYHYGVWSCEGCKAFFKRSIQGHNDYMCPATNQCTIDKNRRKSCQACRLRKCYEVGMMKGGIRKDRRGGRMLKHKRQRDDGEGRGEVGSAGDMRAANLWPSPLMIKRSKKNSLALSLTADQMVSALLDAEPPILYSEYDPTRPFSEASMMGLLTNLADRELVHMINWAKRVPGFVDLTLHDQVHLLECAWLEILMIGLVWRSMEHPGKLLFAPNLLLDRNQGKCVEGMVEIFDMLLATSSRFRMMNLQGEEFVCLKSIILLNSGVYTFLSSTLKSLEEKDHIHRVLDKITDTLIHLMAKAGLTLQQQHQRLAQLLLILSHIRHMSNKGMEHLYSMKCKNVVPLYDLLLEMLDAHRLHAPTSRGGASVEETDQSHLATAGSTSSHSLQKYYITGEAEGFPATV
ER in T47D cells, sequence (P03372 whole entry): as above
CRBN/DDB1, sequence (Q96SW2 whole entry): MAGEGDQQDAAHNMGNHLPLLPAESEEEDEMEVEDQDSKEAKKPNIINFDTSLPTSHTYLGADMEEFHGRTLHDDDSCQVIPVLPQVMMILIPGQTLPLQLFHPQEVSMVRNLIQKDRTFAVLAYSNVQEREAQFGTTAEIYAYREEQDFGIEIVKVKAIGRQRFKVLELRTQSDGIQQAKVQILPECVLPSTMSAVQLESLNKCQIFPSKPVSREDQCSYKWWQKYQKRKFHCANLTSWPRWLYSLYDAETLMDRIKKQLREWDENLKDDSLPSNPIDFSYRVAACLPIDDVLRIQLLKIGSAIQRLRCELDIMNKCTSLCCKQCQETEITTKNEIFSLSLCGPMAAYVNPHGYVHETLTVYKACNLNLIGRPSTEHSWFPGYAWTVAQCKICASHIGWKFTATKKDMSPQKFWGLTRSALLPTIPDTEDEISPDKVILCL
CRBN/DDB1, sequence (Q16531 whole entry partner): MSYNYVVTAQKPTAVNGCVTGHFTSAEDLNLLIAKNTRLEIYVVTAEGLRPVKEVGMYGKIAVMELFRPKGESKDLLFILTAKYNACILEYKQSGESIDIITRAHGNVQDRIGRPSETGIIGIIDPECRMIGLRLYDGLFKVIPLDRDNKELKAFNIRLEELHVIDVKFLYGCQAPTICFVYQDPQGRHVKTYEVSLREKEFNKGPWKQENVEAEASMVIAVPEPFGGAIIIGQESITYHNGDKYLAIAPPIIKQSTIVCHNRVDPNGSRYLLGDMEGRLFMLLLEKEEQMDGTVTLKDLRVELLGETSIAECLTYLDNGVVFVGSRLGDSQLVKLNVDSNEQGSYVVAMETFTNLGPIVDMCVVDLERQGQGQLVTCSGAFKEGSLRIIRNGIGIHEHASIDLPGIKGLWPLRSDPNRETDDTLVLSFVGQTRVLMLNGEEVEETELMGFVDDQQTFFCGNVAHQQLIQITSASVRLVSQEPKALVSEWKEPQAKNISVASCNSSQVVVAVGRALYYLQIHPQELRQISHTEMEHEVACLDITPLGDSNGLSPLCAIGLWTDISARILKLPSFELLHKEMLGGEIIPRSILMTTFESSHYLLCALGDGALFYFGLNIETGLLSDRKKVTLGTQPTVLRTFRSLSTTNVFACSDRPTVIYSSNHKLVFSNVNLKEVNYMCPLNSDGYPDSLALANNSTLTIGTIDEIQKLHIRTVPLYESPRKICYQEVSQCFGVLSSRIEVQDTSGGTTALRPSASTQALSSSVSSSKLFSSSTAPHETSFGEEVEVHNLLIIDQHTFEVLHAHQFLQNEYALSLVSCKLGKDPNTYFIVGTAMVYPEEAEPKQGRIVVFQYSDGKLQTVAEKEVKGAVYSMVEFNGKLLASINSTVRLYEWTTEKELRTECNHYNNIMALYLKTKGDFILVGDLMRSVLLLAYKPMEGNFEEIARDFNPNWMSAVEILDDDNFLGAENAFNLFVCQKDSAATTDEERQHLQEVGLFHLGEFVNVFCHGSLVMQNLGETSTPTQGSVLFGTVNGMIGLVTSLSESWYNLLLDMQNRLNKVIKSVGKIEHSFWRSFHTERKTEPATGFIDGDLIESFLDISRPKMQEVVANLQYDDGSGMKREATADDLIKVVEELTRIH

In general, DC50 refers to the concentration at which degradation of the target reaches its halfway point. In general, Dmax refers to the largest share of the target that was removed. Usually IC50 stands for the concentration that gives 50% inhibition. On to `C[C@@H]1Cc2c([nH]c3ccccc23)[C@@H](c2cnc(N3CCO[C@H](CN4CCN5c6cc7c(cc6OC[C@@H]5C4)C(=O)N(C4CCC(=O)NC4=O)C7)C3)nc2)N1CC(C)(C)F` (stereo partly drawn) [Compound A22, 3-((S)-3-(((R)-4-(5-((1R,3R)-2-(2-fluoro-2-methylpropyl)-3-methyl-2,3,4,9-tetrahydro-1H-pyrido[3,4-b]indol-1-yl)pyrimidin-2-yl)morpholin-2-yl)methyl)-8-oxo-1,2,3,4,4a,5,8,10-octahydro-9H-pyrazino[1′,2′:4,5][1,4]oxazino[2,3-f]isoindol-9-yl)piperidine-2,6-dione], for which the DC50 on ER in T47D cells is < 1 nM; at ER in MCF-7 cells it was 1 to 10 nM. In addition, the Dmax at ER in T47D cells (T47D) and on ER in MCF-7 cells was 25 to 50% each time. The IC50 at CRBN/DDB1 is 50 to 500 nM.
As for `C[C@@H]1Cc2c([nH]c3ccccc23)[C@@H](c2ccc(N3CCC(CN4CCN5c6ccc7c(c6OC[C@@H]5C4)CN([C@H]4CCC(=O)NC4=O)C7=O)CC3)nc2)N1CC(F)F` [Compound A23, (S)-3-((S)-7-((1-(5-((1R,3R)-2-(2,2-difluoroethyl)-3-methyl-2,3,4,9-tetrahydro-1H-pyrido[3,4-b]indol-1-yl)pyridin-2-yl)piperidin-4-yl)methyl)-1-oxo-1,3,5,5a,6,7,8,9-octahydro-2H-pyrazino[1′,2′:4,5][1,4]oxazino[2,3-e]isoindol-2-yl)piperidine-2,6-dione], the 50% degradation concentration (DC50) at ER in T47D cells and on ER in MCF-7 cells was 1 to 10 nM throughout. The greatest degradation seen (Dmax) on ER in T47D cells (T47D) was 50 to 75%; at ER in MCF-7 cells it was 25 to 50%. Moreover, the IC50 at CRBN/DDB1 fell in the range of 50 to 500 nM.
`C[C@@H]1Cc2c([nH]c3ccccc23)[C@@H](c2cnc([C@H]3CC[C@H](C(=O)N4CCC(N5Cc6cc7c(cc6C5)C(=O)N(C5CCC(=O)NC5=O)C7)CC4)CC3)nc2)N1CC(F)F` (stereo partly drawn) [Compound A25, 3-(6-(1-((1R,4r)-4-(5-((1R,3R)-2-(2,2-difluoroethyl)-3-methyl-2,3,4,9-tetrahydro-1H-pyrido[3,4-b]indol-1-yl)pyrimidin-2-yl)cyclohexane-1-carbonyl)piperidin-4-yl)-1-oxo-3,5,6,7-tetrahydropyrrolo[3,4-f]isoindol-2(1H)-yl)piperidine-2,6-dione]: the DC50 at ER in T47D cells was < 1 nM; on ER in MCF-7 cells, 10 to 100 nM. In addition, the greatest degradation seen (Dmax) was 25 to 50% on ER in T47D cells (T47D) and < 25% on ER in MCF-7 cells. Moreover, the IC50 at CRBN/DDB1 is < 50 nM.
In the case of `COc1cc(N2CCC3(CCN(C(=O)CN4Cc5cc6c(cc5C4)C(=O)N(C4CCC(=O)NC4=O)C6=O)CC3)CC2)ccc1[C@@H]1c2[nH]c3ccccc3c2C[C@@H](C)N1CC(F)F` (stereo partly drawn) [Compound A27, 6-(2-(9-(4-((1R,3R)-2-(2,2-difluoroethyl)-3-methyl-2,3,4,9-tetrahydro-1H-pyrido[3,4-b]indol-1-yl)-3-methoxyphenyl)-3,9-diazaspiro[5.5]undecan-3-yl)-2-oxoethyl)-2-(2,6-dioxopiperidin-3-yl)-6,7-dihydropyrrolo[3,4-f]isoindole-1,3(2H,5H)-dione], the DC50 on ER in T47D cells and on ER in MCF-7 cells was < 1 nM throughout. For the same compound, the figures for the Dmax on ER in T47D cells (T47D) and at ER in MCF-7 cells were > 75% and 50 to 75%, respectively. Moreover, the IC50 at CRBN/DDB1 is 500 to 5000 nM.
As for `COc1cc(N2CCC(CN3CCN4c5cc(F)c(C(=O)N[C@H]6CCC(=O)NC6=O)cc5OC[C@@H]4C3)CC2)ccc1[C@@H]1c2[nH]c3ccccc3c2C[C@@H](C)N1CC(F)F` [Compound A30, (S)-3-((1-(4-((1R,3R)-2-(2,2-difluoroethyl)-3-methyl-2,3,4,9-tetrahydro-1H-pyrido[3,4-b]indol-1-yl)-3-methoxyphenyl)piperidin-4-yl)methyl)-N-((S)-2,6-dioxopiperidin-3-yl)-9-fluoro-1,2,3,4,4a,5-hexahydrobenzo[b]pyrazino[1,2-d][1,4]oxazine-8-carboxamide], the 50% degradation concentration (DC50) at ER in T47D cells and on ER in MCF-7 cells was 1 to 10 nM each time. Moreover, the Dmax on ER in T47D cells (T47D) was in the range of 50 to 75%; on ER in MCF-7 cells, 25 to 50%. Further, the IC50 on CRBN/DDB1 is 500 to 5000 nM.
As for `COc1cc(N2CCC(CN3CCN(c4ccc(NC5CCC(=O)NC5=O)cc4F)CC3)CC2)ccc1[C@@H]1c2[nH]c3ccccc3c2C[C@@H](C)N1CC(F)F` (stereo partly drawn) [Compound A31, 3-((4-(4-((1-(4-((1R,3R)-2-(2,2-difluoroethyl)-3-methyl-2,3,4,9-tetrahydro-1H-pyrido[3,4-b]indol-1-yl)-3-methoxyphenyl)piperidin-4-yl)methyl)piperazin-1-yl)-3-fluorophenyl)amino)piperidine-2,6-dione], the DC50 on ER in T47D cells was 1 to 10 nM; at ER in MCF-7 cells, < 1 nM. Besides, the Dmax on ER in T47D cells (T47D) and at ER in MCF-7 cells was 25 to 50% in each case. Moreover, the IC50 at CRBN/DDB1 is < 50 nM.
For the compound `C[C@@H]1Cc2c([nH]c3ccccc23)[C@@H](c2cnc(N3CCC4(CC3)CC(CN3CCC(c5ccc6c(c5)n(C)c(=O)n6C5CCC(=O)NC5=O)CC3)C4)nc2)N1CC(F)F` (stereo partly drawn) [Compound A32, 3-(5-(1-((7-(5-((1R,3R)-2-(2,2-difluoroethyl)-3-methyl-2,3,4,9-tetrahydro-1H-pyrido[3,4-b]indol-1-yl)pyrimidin-2-yl)-7-azaspiro[3.5]nonan-2-yl)methyl)piperidin-4-yl)-3-methyl-2-oxo-2,3-dihydro-1H-benzo[d]imidazol-1-yl)piperidine-2,6-dione], the DC50 on ER in T47D cells and on ER in MCF-7 cells was < 1 nM throughout. For the same compound, the Dmax on ER in T47D cells (T47D) was 50 to 75%; at ER in MCF-7 cells it was 25 to 50%. Besides, the IC50 at CRBN/DDB1 lay in the range of 50 to 500 nM.
`COc1cc(N2CCC(CN3CCC4(CC3)COc3cc5c(cc34)CN(C3CCC(=O)NC3=O)C5=O)CC2)ccc1[C@@H]1c2[nH]c3ccccc3c2C[C@@H](C)N1CC(F)F` (stereo partly drawn) [Compound A33, 3-(1′-((1-(4-((1R,3R)-2-(2,2-difluoroethyl)-3-methyl-2,3,4,9-tetrahydro-1H-pyrido[3,4-b]indol-1-yl)-3-methoxyphenyl)piperidin-4-yl)methyl)-7-oxo-5,7-dihydro-2H,6H-spiro[furo[2,3-f]isoindole-3,4′-piperidin]-6-yl) piperidine-2,6-dione]: the DC50 at ER in T47D cells is < 1 nM; at ER in MCF-7 cells it was 1 to 10 nM. Further, the figures for the Dmax on ER in T47D cells and at ER in MCF-7 cells were 50 to 75% and < 25%, respectively. Besides, the IC50 at CRBN/DDB1 was 50 to 500 nM.
For `COc1cc(N2CCC(CN3CCC(c4ccc(N[C@H]5CCC(=O)NC5=O)cc4F)CC3)CC2)ccc1[C@@H]1c2[nH]c3ccccc3c2C[C@@H](C)N1CC(F)F` [Compound A34, (S)-3-((4-(1-((1-(4-((1R,3R)-2-(2,2-difluoroethyl)-3-methyl-2,3,4,9-tetrahydro-1H-pyrido[3,4-b]indol-1-yl)-3-methoxyphenyl)piperidin-4-yl)methyl)piperidin-4-yl)-3-fluorophenyl)amino)piperidine-2,6-dione], the values for the DC50 on ER in T47D cells and on ER in MCF-7 cells were < 1 nM and > 100 nM, respectively. The maximal degradation (Dmax) on ER in T47D cells (T47D) was 25 to 50%; at ER in MCF-7 cells, < 25%. Also, the IC50 at CRBN/DDB1 was < 50 nM.
For `COc1cc(N2CCC(CN3CCC(c4ccc5c(c4)n(C)c(=O)n5C4CCC(=O)NC4=O)CC3)CC2)ccc1[C@@H]1c2[nH]c3ccccc3c2C[C@@H](C)N1CC(F)F` (stereo partly drawn) [Compound A35, 3-(5-(1-((1-(4-((1R,3R)-2-(2,2-difluoroethyl)-3-methyl-2,3,4,9-tetrahydro-1H-pyrido[3,4-b]indol-1-yl)-3-methoxyphenyl)piperidin-4-yl)methyl)piperidin-4-yl)-3-methyl-2-oxo-2,3-dihydro-1H-benzo[d]imidazol-1-yl)piperidine-2,6-dione], in that order: < 1 nM, 10 to 100 nM, 50 to 75%, 25 to 50% and 50 to 500 nM.
As to `COc1cc(N2CCC(CN3CCN(c4ccc(NC5CCC(=O)NC5=O)c(F)c4)CC3)CC2)ccc1[C@@H]1c2[nH]c3ccccc3c2C[C@@H](C)N1CC(F)F` (stereo partly drawn) [Compound A41, 3-((4-(4-((1-(4-((1R,3R)-2-(2,2-difluoroethyl)-3-methyl-2,3,4,9-tetrahydro-1H-pyrido[3,4-b]indol-1-yl)-3-methoxyphenyl)piperidin-4-yl)methyl)piperazin-1-yl)-2-fluorophenyl)amino)piperidine-2,6-dione], the DC50 on ER in T47D cells was in the range of 10 to 100 nM. Besides, the Dmax at ER in T47D cells (T47D) is 25 to 50%. The half-inhibitory concentration (IC50) at CRBN/DDB1 is 500 to 5000 nM.
As to `COc1cc(N2CCC(CN3CCN(c4ccc(C5CCC(=O)NC5=O)cc4)CC3)CC2)ccc1[C@@H]1c2[nH]c3ccccc3c2C[C@@H](C)N1CC(F)F` (stereo partly drawn) [Compound A46, 3-(4-(4-((1-(4-((1R,3R)-2-(2,2-difluoroethyl)-3-methyl-2,3,4,9-tetrahydro-1H-pyrido[3,4-b]indol-1-yl)-3-methoxyphenyl)piperidin-4-yl)methyl)piperazin-1-yl)phenyl)piperidine-2,6-dione], the DC50 on ER in T47D cells was < 1 nM. Further, the Dmax on ER in T47D cells (T47D) is 25 to 50%. Also, the 50% inhibitory concentration (IC50) on CRBN/DDB1 was in the range of 50 to 500 nM.

The values are drawn from patent US20260007681A1, “INDOLE DERIVATIVES AS ESTROGEN RECEPTOR DEGRADERS” (REGENTS OF THE UNIVERSITY OF MICHIGAN, priority 2022, published 2026).
